Laboratory results reported in ChEMBL document CHEMBL1201862, “PubChem BioAssay data set” (2004).
Activity calls are given as the source filed them. Cut-off read from the data, not from the text of the source, for most assays here: actives have a measured IC50 and inactives only a lower limit.

Experiments:
Type in all cases: functional
[1] = molecular target: T1, Sentrin-specific protease 6 (Homo sapiens, UniProt Q9GZR1);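 note: Luminescence-based dose-response confirmatory assay of SENP6 inhibition, following up an ultra-high-throughput screen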
T1 sequence (Q9GZR1 whole entry): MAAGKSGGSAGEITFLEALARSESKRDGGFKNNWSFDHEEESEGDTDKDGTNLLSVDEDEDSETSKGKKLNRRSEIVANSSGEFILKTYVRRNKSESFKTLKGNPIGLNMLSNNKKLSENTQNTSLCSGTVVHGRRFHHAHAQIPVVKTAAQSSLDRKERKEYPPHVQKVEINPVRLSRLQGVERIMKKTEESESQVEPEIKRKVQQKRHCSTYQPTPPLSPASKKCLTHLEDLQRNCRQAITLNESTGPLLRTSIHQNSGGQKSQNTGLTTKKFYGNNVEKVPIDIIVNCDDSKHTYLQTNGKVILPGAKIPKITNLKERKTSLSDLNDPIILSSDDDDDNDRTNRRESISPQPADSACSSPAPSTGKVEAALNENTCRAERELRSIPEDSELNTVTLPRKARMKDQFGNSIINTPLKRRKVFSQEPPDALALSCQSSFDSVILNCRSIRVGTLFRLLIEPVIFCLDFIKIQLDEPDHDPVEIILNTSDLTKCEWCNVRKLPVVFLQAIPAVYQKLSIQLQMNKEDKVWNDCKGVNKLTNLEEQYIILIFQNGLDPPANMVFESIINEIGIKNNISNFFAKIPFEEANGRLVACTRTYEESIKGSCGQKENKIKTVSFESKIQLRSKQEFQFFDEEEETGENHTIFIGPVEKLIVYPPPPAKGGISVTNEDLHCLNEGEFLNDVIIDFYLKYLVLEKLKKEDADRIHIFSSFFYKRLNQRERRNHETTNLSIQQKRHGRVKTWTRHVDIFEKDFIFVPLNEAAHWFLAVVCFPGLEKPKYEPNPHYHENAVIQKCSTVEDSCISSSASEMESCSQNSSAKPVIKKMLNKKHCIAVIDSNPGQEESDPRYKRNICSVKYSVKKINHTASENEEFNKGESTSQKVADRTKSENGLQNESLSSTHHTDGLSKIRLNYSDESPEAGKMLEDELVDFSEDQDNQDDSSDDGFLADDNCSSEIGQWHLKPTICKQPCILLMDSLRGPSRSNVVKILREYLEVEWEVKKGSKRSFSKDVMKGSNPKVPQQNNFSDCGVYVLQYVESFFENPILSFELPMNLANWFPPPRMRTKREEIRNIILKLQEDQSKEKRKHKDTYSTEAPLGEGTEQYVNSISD

[2] = molecular target: T2, Sentrin-specific protease 8 (Homo sapiens, UniProt Q96LD8);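 note: luminescence read-out of SENP8 inhibition, dose-response confirmation following an ultra-high-throughput screen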
T2 sequence (Q96LD8 whole entry): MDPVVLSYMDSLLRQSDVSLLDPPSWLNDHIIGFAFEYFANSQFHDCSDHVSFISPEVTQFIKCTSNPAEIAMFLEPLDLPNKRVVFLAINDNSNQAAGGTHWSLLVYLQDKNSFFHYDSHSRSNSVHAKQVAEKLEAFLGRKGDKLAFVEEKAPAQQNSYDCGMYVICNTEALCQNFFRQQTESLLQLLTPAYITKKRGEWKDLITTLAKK

[3] = IC50 of Artemis nuclease activity blockers – biochemical, fluorescence intensity, dose response (AID 720701);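 note: Artemis endonuclease enzyme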

Measured: IC50

CC(=O)N(/N=C1\Sc2ccccc2C1=O)c1cccc(C)c1
active: [1] 6.06 µM | [2] 11.7 µM | [3] 18.3 µM
